Measurements: patent publication US8445539B2, “Alpha-aminoamide derivatives useful in the treatment of psychiatric disorders” (priority 2007, dated 2013)

Tests used:
[1] = test system: d-amphetamine-induced PPI impairment; assay: Amphetamine-induced PPI deficit (ralfinamide and haloperidol association); type: in vivo; settings: ralfinamide methanesulfonate per se 60 mg/kg p.o.; d-amphetamine 2.5 mg/kg s.c.; rats
Description: A PPI test, carried out according to the method described in Example 4, was performed in rats.

[2] = test system: anxiety-like behaviour in Open Field; assay: Anxiety open field test; type: in vivo; settings: open field test in rats
Description: The Open Field test is commonly used to assess locomotor, exploratory and anxiety-like behaviour in rats or mice. This test is particularly useful in evaluating the effects of anxiolytic and anxiogenic drugs, locomotor responses to drug and as well as behavioural responses to novelty.
The Open Field test task approaches the conflict between the innate fear that rats have of the central area of a novel or brightly lit open field versus their desire to explore new environments. When anxious, the natural tendency of rodents is to prefer staying closed to the walls (thigmotaxis). In this context, anxiety-related behaviour is measured by the degree to which the rat avoids the center of the Open Field test.
The Open Field arena consists of an empty and bright square arena surrounded by walls to prevent animal from escaping. The arena (90 cm×90 cm×40 cm height) was divided into 6×6 grid of equally-sized squares using black tape. […]
The rat is placed in the center of the arena and its behaviour recorded on video over a chosen period (from 5 to 15 min) and scored.
Time spent in each category of square is recorded. In addition, the fifteen minute open-field test is divided into 3 blocks of 5 minutes and total locomotor activity is scored as the number of square entries in each five minute block. […] Finally, the latency to visit the large centre and any one of the four corners is scored manually. […]

**Q.** For `C[C@H](NCc1ccc(OCc2ccccc2F)cc1)C(N)=O` [Ralfinamide methanesulfonate, (S)-(+)-2-[4-(2-fluorobenzyloxy)benzylamino]propanamide], which “Reversal of PPI impairment induced by d-amphetamine” value [1] is on record?
**A.** Its value is “did not reverse”.

**Q.** And the “Activity in anxiety animal model (Example 6)” value [2]?
**A.** The value was “active”.
